According to patent US20070111265A1, “Ligands for mineralocorticoid receptor (MR) and methods for screening for or designing MR ligands” (Van Andel Research Institute, priority 2005, published 2007):
Where two headings read alike, the source gives them in different places.

Biological target: T1, wild type GR (full-length) (Homo sapiens, UniProt P04150)
T1 sequence (P04150 1-777): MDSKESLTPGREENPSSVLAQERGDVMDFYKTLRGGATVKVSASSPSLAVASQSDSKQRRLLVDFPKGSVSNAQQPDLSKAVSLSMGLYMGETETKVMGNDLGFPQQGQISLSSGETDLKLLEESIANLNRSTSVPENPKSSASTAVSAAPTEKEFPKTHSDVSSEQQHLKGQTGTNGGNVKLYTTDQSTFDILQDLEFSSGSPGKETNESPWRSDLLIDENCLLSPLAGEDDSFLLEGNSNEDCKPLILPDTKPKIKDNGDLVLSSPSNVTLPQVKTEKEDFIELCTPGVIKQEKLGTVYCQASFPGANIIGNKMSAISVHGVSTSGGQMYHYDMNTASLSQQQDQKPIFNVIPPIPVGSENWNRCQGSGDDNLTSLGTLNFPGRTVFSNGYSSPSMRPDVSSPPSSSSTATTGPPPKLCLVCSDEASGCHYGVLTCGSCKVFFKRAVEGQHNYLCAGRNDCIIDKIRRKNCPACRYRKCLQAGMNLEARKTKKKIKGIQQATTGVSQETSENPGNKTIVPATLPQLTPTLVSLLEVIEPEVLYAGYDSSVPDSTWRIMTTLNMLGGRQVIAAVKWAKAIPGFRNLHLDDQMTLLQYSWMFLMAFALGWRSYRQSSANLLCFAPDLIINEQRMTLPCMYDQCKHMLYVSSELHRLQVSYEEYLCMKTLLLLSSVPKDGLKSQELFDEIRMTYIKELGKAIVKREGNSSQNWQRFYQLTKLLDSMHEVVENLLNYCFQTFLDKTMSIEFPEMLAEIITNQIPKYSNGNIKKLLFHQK
Test: MMTV luciferase reporter assay in Cos-7 cells
Type: cell-based
Protocol: Cos-7 cells were maintained in DMEM containing 10% fetal bovine serum (FBS) and were transiently transfected using Lipofectamine 2000 (Invitrogen). […] Cells were transfected in Opti-MEM with 400 ng of MMTV-Luc reporter plasmid and 400 ng of receptor expression vector (pRS vector) encoding full-length GR and MR respectively (ATCC). […] Luciferase data were normalized to Renilla activity as an internal control.
To validate the role of the key MR pocket residues in hormone recognition, the inventors mutated S843 and L848 to the corresponding GR residues (S843P and L848Q) within the context of the full length wild type receptor. […] We also performed reverse mutations in the full length GR receptor (P637S and Q642L) and tested them in the same MMTV reporter.

EC50 (Cos-7, MMTV-Luc, read-out: EC50, activation of wild type GR): ~20 nM | EC50 (summary of FIG. 5 dose-response, read-out: affinity to GR (shown in FIG. 5)): ~10 nM
Compound: C[C@]12C[C@H](O)[C@H]3[C@@H](CCC4=CC(=O)CC[C@@]43C)[C@@H]1CC[C@@H]2C(=O)CO [corticosterone]
